Measured values reported in the supplement of paper PMC10307832.

Legend:
Assay in all cases: relative viability (nuclei count vs DMSO), 5 days (fraction); higher = more cells survive
R406 + OSI-027 = compound: COc1cc(Nc2ncc(F)c(Nc3ccc4c(n3)NC(=O)C(C)(C)O4)n2)cc(OC)c1OC [R406] + COc1cccc2cc(-c3nc([C@H]4CC[C@H](C(=O)O)CC4)n4ncnc(N)c34)[nH]c12 [OSI-027] (partner 0.5 µM)
Method in brief: (§1)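 The day after seeding in 1536-well plates, lung cancer cell lines were treated by pin tool with a single drug, or with a fixed anchor-drug dose together with five library-drug doses (not always all listed) in √10 steps. After 5 days, a combined fix-and-stain solution (final 0.05% Triton X-100, 1% formaldehyde, 1 ug/ml Hoechst) was added. Nuclei counted on 4× images gave relative viability as treated counts over vehicle counts, reported as the median of duplicate plates.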

R406 + Pictilisib = compound: COc1cc(Nc2ncc(F)c(Nc3ccc4c(n3)NC(=O)C(C)(C)O4)n2)cc(OC)c1OC [R406] + CS(=O)(=O)N1CCN(Cc2cc3nc(-c4cccc5[nH]ncc45)nc(N4CCOCC4)c3s2)CC1 [Pictilisib] (partner 1 µM)
Method in brief: as §1

Daporinad + Lapatinib = compound: O=C(/C=C/c1cccnc1)NCCCCC1CCN(C(=O)c2ccccc2)CC1 [Daporinad] + CS(=O)(=O)CCNCc1ccc(-c2ccc3ncnc(Nc4ccc(OCc5cccc(F)c5)c(Cl)c4)c3c2)o1 [Lapatinib] (partner 2 µM)
Method in brief: as §1

Daporinad + Dasatinib = compound: O=C(/C=C/c1cccnc1)NCCCCC1CCN(C(=O)c2ccccc2)CC1 [Daporinad] + Cc1nc(Nc2ncc(C(=O)Nc3c(C)cccc3Cl)s2)cc(N2CCN(CCO)CC2)n1 [Dasatinib] (partner 0.075 µM)
Method in brief: as §1

Row | Cell Line | relative viability (R406 + OSI-027; first compound 0.08 µM) | relative viability (R406 + OSI-027; first compound 0.253 µM) | relative viability (R406 + OSI-027; first compound 0.8 µM) | relative viability (R406 + OSI-027; first compound 2.53 µM) | relative viability (R406 + OSI-027; first compound 8 µM) | relative viability (R406 + Pictilisib; first compound 0.08 µM) | relative viability (R406 + Pictilisib; first compound 0.253 µM) | relative viability (R406 + Pictilisib; first compound 0.8 µM) | relative viability (R406 + Pictilisib; first compound 2.53 µM) | relative viability (R406 + Pictilisib; first compound 8 µM) | relative viability (Daporinad + Lapatinib; first compound 0.0005 µM) | relative viability (Daporinad + Lapatinib; first compound 0.001581 µM) | relative viability (Daporinad + Lapatinib; first compound 0.005 µM) | relative viability (Daporinad + Lapatinib; first compound 0.01581 µM) | relative viability (Daporinad + Dasatinib; first compound 0.0005 µM) | relative viability (Daporinad + Dasatinib; first compound 0.001581 µM) | relative viability (Daporinad + Dasatinib; first compound 0.005 µM) | relative viability (Daporinad + Dasatinib; first compound 0.01581 µM)
1 | PC-14 | 0.795 | 1.11 | 1.41 | 0.428 | 0.121 | 0.669 | 0.835 | 0.703 | 0.319 | 0.381 | 0.271 | 0.383 | 0.31 | 0.393 | 0.276 | 0.315 | 0.293 | 0.363
2 | HARA | 0.621 | 0.668 | 0.591 | 0.22 | 0.198 | 0.416 | 0.349 | 0.405 | 0.248 | 0.187 | 0.758 | 1.05 | 0.745 | 0.547 | 0.3 | 0.285 | 0.284 | 0.339
3 | NCI-H2087 | 0.44 | 0.597 | 0.658 |  | 0.499 | 0.876 | 1.07 | 0.92 | 0.352 | 0.717 | 0.99 | 0.979 | 1.18 | 1.14 | 0.787 | 1.17 | 0.934 | 0.923
4 | NCI-H1437 | 0.91 | 0.86 | 1.11 | 0.835 | 0.593 | 0.368 | 0.535 | 0.367 | 0.236 | 0.231 | 0.704 | 0.879 | 0.867 | 0.85 | 0.342 | 0.47 | 0.4 | 0.415
5 | ChaGo-K-1 | 0.606 | 0.565 | 0.672 | 0.386 | 0.471 | 0.719 | 0.917 | 0.791 | 0.584 | 0.391 |  |  |  |  | 0.672 | 0.5 | 0.476 | 0.278
6 | HCC-44 | 0.435 | 0.662 | 0.599 | 0.293 | 0.363 | 0.569 | 0.647 | 0.611 | 0.526 | 0.335 | 1.06 | 1.08 | 1.07 | 0.937 |  |  |  | 
7 | NCI-H1648 |  |  | 0.255 | 0.249 | 0.28 |  |  |  |  |  |  |  |  |  |  |  |  | 
8 | NCI-H1623 | 0.408 | 0.429 | 0.398 | 0.411 | 0.43 |  |  |  |  |  |  |  |  |  | 0.537 | 0.463 | 0.542 | 0.525
9 | A549 |  |  |  |  |  | 0.519 | 0.694 | 0.6 | 0.265 | 0.0797 | 0.973 | 1.05 | 0.938 | 0.607 |  |  |  | 
10 | IA-LM |  |  |  |  |  | 0.443 | 0.475 | 0.359 | 0.409 | 0.264 | 1.02 | 0.771 | 0.664 | 0.876 |  |  |  | 
11 | NCI-H1703 |  |  |  |  |  | 0.229 | 0.207 | 0.278 | 0.214 | 0.187 | 1.39 | 1.22 | 0.845 | 0.402 |  |  |  | 
12 | LCLC-103H | 0.419 | 0.453 | 0.536 | 0.362 | 0.331 | 0.462 | 0.636 | 0.595 | 0.403 | 0.356 |  |  |  |  | 0.546 | 0.411 | 0.465 | 0.502
13 | SW 900 | 0.649 | 0.874 | 0.75 | 0.113 | 0.247 |  |  |  |  |  |  |  |  |  | 0.53 | 0.574 | 0.716 | 0.436
